Measurements reported in patent US11512079B2, “Heterocycle substituted pyridine derivative antifungal agents” (Amplyx Pharmaceuticals, Inc., priority 2017, dated 2022).
In brackets after ≈: the same amount, converted by molar mass.

Experiments:
Assay type in all cases: cell-based
[1] = test system: Rhizomucor pusillus 46342; assay: In vitro antifungal assay (Example IX), microdilution broth, MEC; conditions: minimum effective concentration (shortening of hyphae), 35° C., 40-48 h, RPMI1640
Method in brief: (§1)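 Read-out is the minimum effective concentration: lowest compound level causing shorter hyphae than in DMSO controls, echinocandin-style. Broth microdilution used conidia or spores harvested from agar plates, cleared of mycelium and clumps, at a final 1-2×10^4 spores/mL in RPMI1640.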

[2] = test system: Aspergillus fumigatus MYA3626; assay: as above; conditions: minimum effective concentration (shortening of hyphae), 35° C., 40-48 h, RPMI1640
Method in brief: as §1

[3] = test system: Cryptococcus neoformans H99; assay: In vitro antifungal assay (Example IX), microdilution broth, MIC; conditions: minimum inhibitory concentration (≥50% inhibition), 35° C., 72 h, RPMI1640
Method in brief: (§2)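 Yeast inocula (2.5×10^3 cells/mL, RPMI1640) were exposed to twofold compound series reaching 2-0.0019 μg/mL final, per CLSI yeast methodology. Incubation at 35° C. ran 40-48 h for Candida albicans 90028 and 72 h for Cryptococcus neoformans H99. MIC endpoints were confirmed by absorbance at 600 nm.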

[4] = test system: Candida albicans 90028; assay: as above; conditions: minimum inhibitory concentration (≥50% inhibition), 35° C., 40-48 h, RPMI1640
Method in brief: as §2

SMILES	MIC [3] [µg/mL]	MIC [4] [µg/mL]	minimal effective concentration [1] [µg/mL]	minimal effective concentration [2] [µg/mL]
Nc1ncccc1-c1cc(Cc2ccc(OCc3ccccc3C(F)(F)F)nc2)no1 [compound 128, 3-(3-((6-((2-(trifluoromethyl)benzyl)oxy)pyridin-3-yl)methyl)isoxazol-5-yl)pyridin-2-amine]		> 1	> 1	0.1 to 1
Nc1ncccc1-c1cc(Cc2ccc(OC3CCCc4cccnc43)nc2)no1 (centres unmarked) [compound 129, 3-(3-((6-((5,6,7,8-tetrahydroquinolin-8-yl)oxy)pyridin-3-yl)methyl)isoxazol-5-yl)pyridin-2-amine]		> 1	> 1	> 1
Nc1ccc(-c2cc(Cc3ccc(OCc4nccs4)cc3)no2)c(N)n1 [compound 133, 3-(3-(4-(thiazol-2-ylmethoxy)benzyl)isoxazol-5-yl)pyridine-2,6-diamine]		0.1 to 1 (≈ 0.264 to 2.64 µM)	0.1 to 1	0.1 to 1
Nc1ncccc1-c1cc(Cc2ccc(/C=C/Cc3ccccc3)cc2)no1 [compound 194, (E)-3-(3-(4-(3-phenylprop-1-en-1-yl)benzyl)isoxazol-5-yl)pyridin-2-amine]		> 1	> 1	0.1 to 1
Nc1ncccc1-c1cc(Cc2ccc(OCc3ccnc(Cl)c3F)nc2)no1 [compound 210, 3-(3-((6-((2-chloro-3-fluoropyridin-4-yl)methoxy)pyridin-3-yl)methyl)isoxazol-5-yl)pyridin-2-amine]		> 1	> 1	> 1
Nc1ncccc1-c1cc(Cc2ccc(OCC(c3ccccc3)c3ccccc3)nc2)no1 [compound 215, 3-(3-((6-(2,2-diphenylethoxy)pyridin-3-yl)methyl)isoxazol-5-yl)pyridin-2-amine]		> 1	> 1	> 1
Nc1ncccc1-c1cc(Cc2ccc(N3CCOCC3)nc2)no1 [compound 227, 3-(3-((6-morpholinopyridin-3-yl)methyl)isoxazol-5-yl)pyridin-2-amine]		> 1	> 1	> 1
Nc1ncccc1-c1cc(Cc2ccc(S(=O)(=O)N3CCOCC3)cc2)no1 [compound 228, 3-(3-(4-(morpholinosulfonyl)benzyl)isoxazol-5-yl)pyridin-2-amine]		> 1	> 1	> 1
Nc1ncccc1-c1cc(Cc2ccc(N3CCCC3c3ccccc3)nc2)no1 (centres unmarked) [compound 229, 3-(3-((6-(2-phenylpyrrolidin-1-yl)pyridin-3-yl)methyl)isoxazol-5-yl)pyridin-2-amine]		> 1	> 1	> 1
Nc1ncccc1-c1cc(Cc2ccc(N3CCCCC3)nc2)no1 [compound 230, 3-(3-((6-(piperidin-1-yl)pyridin-3-yl)methyl)isoxazol-5-yl)pyridin-2-amine]		0.1 to 1 (≈ 0.298 to 2.98 µM)	> 1	0.1 to 1

Further lines, with some results ahead:

MIC [3] [µg/mL]	MIC [4] [µg/mL]	SMILES	minimal effective concentration [1] [µg/mL]	minimal effective concentration [2] [µg/mL]
> 1	> 1	N#CCc1ccc(Cc2cc(-c3cccnc3N)on2)cc1 [compound 2, 2-(4-((5-(2-aminopyridin-3-yl)isoxazol-3-yl)methyl)phenyl)acetonitrile]	> 1	0.1 to 1
> 1	> 1	COc1ccc(OCc2ccc(Cc3cc(-c4cccnc4N)on3)cc2)cc1OC [compound 104, 3-(3-(4-((3,4-dimethoxyphenoxy)methyl)benzyl)isoxazol-5-yl)pyridin-2-amine]	> 1	> 1
	> 1	COc1ccc(COc2ccc(Cc3cc(-c4cccnc4N)on3)cc2)cc1 [compound 109, 3-(3-(4-((4-methoxybenzyl)oxy)benzyl)isoxazol-5-yl)pyridin-2-amine]	> 1	> 1
	> 1	N#Cc1ccc(COc2ccc(Cc3cc(-c4cccnc4N)on3)cc2)cc1 [compound 113, 4-((4-((5-(2-aminopyridin-3-yl)isoxazol-3-yl)methyl)phenoxy)methyl)benzonitrile]	> 1	0.1 to 1
	> 1	Nc1ncccc1-c1cc(Cc2ccc(OCc3ccc(F)nc3)cc2)no1 [compound 116, 3-(3-(4-((6-fluoropyridin-3-yl)methoxy)benzyl)isoxazol-5-yl)pyridin-2-amine]	> 1	0.01 to 0.1
	> 1	Nc1ncccc1-c1cc(Cc2ccc(Oc3c[n+]([O-])ccn3)cc2)no1 [compound 119, 3-(4-((5-(2-aminopyridin-3-yl)isoxazol-3-yl)methyl)phenoxy)pyrazine 1-oxide]	> 1	> 1
	> 1	Nc1ncccc1-c1cc(Cc2ccc(Cn3ccccc3=O)cc2)no1 [compound 126, 1-(4-((5-(2-aminopyridin-3-yl)isoxazol-3-yl)methyl)benzyl)pyridin-2(1H)-one]	> 1	> 1
	0.1 to 1 (≈ 0.247 to 2.47 µM)	COc1ccc(F)cc1OCc1ccc(Cc2cc(-c3cccnc3N)on2)cc1 [compound 192, 3-(3-(4-((5-fluoro-2-methoxyphenoxy)methyl)benzyl)isoxazol-5-yl)pyridin-2-amine]	> 1	0.1 to 1
	> 1	CS(=O)(=O)Nc1cccc(Cc2ccc(Cc3cc(-c4cccnc4N)on3)cc2)c1 [compound 211, N-(3-(4-((5-(2-aminopyridin-3-yl)isoxazol-3-yl)methyl)benzyl)phenyl)methanesulfonamide]	> 1	> 1
	> 1	Nc1ncccc1-c1cc(Cc2ccc(OCCCc3ccc(OCc4ccccc4)cc3)nc2)no1 [compound 214, 3-(3-((6-(3-(4-(benzyloxy)phenyl)propoxy)pyridin-3-yl)methyl)isoxazol-5-yl)pyridin-2-amine]	> 1	> 1
